Assay results taken from patent US8513245B2, “Pharmaceutical composition for reducing the area of myocardial infarction and its use” (Changzhou Hi-Tech District Multiple Dimension Industry …, priority 2007, dated 2013).
Where a name gives a salt, the structure may show the parent alone.

Tested on: rat model of AMI
Test: Protective effect in rat model of AMI (coronary ligation, NBT staining, infarcted myocardium weight)
Assay type: in vivo
Conditions: for IMW / IMW/HW (%): SD male rats, 4 h after ligation

Structure (SMILES)	reduction of IMW/HW (%) in comparison with solvent control group (9 mg/kg trimetazidine, control 24.5%) [%]	IMW (TMZ 1 mg/kg i.p.) [mg]	IMW/HW (%) (TMZ 1 mg/kg i.p.)	IMW (TMZ 3 mg/kg i.p.) [mg]	IMW/HW (%) (TMZ 3 mg/kg i.p.)	IMW (TMZ 6 mg/kg i.p.) [mg]	IMW/HW (%) (TMZ 6 mg/kg i.p.)	IMW (TMZ 9 mg/kg i.p.) [mg]	IMW/HW (%) (TMZ 9 mg/kg i.p., hydrochloride)	IMW/HW (%) (TMZ 9 mg/kg i.p., listed as trimetazidine, hydrochloride)	reduction of IMW/HW (%) in comparison with solvent control group (900 mg/kg levocarnitine) [%]	IMW (LC 100 mg/kg i.p.) [mg]	IMW/HW (%) (LC 100 mg/kg i.p.)	IMW (LC 300 mg/kg i.p.) [mg]	IMW/HW (%) (LC 300 mg/kg i.p.)	IMW (LC 600 mg/kg i.p.) [mg]	IMW/HW (%) (LC 600 mg/kg i.p.)	IMW (LC 900 mg/kg i.p.) [mg]	IMW/HW (%) (LC 900 mg/kg i.p.)
COc1ccc(CN2CCNCC2)c(OC)c1OC [TMZ, trimetazidine hydrochloride]	34.7	177 ± 20.2	22.8 ± 3.40	163 ± 20.2	21.0 ± 2.60	132 ± 19.1	17.0 ± 3.20	125 ± 15.2	16.0 ± 2.50	16.0	–	–	–	–	–	–	–	–	–
C[N+](C)(C)C[C@H](O)CC(=O)[O-] [LC, Levocarnitine]	–	–	–	–	–	–	–	–	–	–	22.9	139 ± 25.9	16.8 ± 3.33	141 ± 23.0	17.2 ± 3.04	139 ± 24.0	16.8 ± 3.10	129 ± 23.8	15.8 ± 3.10
